Reference: ChEMBL document CHEMBL1201862, “PubChem BioAssay data set” (2004)
Activity calls are given as the source filed them.

Assays:
Prothrombin = Prothrombin (Homo sapiens, UniProt P00734); experiment: Thrombin 1536 HTS Dose Response Confirmation. [Related pubchem assays: 1046 (Thrombin 1536 HTS; hits were confirmed in this assay)]; format: functional
[1] = molecular target: T1, Dual specificity protein phosphatase 6 (Rattus norvegicus, UniProt Q64346); experiment: MKP-3 phosphatase inhibitors, primary screen, biochemical, rat enzyme, in vitro (AID 425)
T1 sequence (Q64346 whole entry): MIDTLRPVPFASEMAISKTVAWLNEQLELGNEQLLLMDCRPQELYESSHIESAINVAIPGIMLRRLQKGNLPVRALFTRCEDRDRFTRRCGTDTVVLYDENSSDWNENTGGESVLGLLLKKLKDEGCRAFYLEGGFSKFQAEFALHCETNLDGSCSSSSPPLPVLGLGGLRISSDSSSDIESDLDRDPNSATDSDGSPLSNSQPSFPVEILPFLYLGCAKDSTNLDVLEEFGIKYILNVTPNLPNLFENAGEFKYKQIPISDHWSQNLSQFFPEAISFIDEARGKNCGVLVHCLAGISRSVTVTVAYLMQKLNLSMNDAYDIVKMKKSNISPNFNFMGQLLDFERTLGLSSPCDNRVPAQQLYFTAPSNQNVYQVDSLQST

[2] = molecular target: T2, Histone-lysine N-methyltransferase NSD2 (Homo sapiens, UniProt O96028); format: biochemical
T2 sequence (O96028 whole entry): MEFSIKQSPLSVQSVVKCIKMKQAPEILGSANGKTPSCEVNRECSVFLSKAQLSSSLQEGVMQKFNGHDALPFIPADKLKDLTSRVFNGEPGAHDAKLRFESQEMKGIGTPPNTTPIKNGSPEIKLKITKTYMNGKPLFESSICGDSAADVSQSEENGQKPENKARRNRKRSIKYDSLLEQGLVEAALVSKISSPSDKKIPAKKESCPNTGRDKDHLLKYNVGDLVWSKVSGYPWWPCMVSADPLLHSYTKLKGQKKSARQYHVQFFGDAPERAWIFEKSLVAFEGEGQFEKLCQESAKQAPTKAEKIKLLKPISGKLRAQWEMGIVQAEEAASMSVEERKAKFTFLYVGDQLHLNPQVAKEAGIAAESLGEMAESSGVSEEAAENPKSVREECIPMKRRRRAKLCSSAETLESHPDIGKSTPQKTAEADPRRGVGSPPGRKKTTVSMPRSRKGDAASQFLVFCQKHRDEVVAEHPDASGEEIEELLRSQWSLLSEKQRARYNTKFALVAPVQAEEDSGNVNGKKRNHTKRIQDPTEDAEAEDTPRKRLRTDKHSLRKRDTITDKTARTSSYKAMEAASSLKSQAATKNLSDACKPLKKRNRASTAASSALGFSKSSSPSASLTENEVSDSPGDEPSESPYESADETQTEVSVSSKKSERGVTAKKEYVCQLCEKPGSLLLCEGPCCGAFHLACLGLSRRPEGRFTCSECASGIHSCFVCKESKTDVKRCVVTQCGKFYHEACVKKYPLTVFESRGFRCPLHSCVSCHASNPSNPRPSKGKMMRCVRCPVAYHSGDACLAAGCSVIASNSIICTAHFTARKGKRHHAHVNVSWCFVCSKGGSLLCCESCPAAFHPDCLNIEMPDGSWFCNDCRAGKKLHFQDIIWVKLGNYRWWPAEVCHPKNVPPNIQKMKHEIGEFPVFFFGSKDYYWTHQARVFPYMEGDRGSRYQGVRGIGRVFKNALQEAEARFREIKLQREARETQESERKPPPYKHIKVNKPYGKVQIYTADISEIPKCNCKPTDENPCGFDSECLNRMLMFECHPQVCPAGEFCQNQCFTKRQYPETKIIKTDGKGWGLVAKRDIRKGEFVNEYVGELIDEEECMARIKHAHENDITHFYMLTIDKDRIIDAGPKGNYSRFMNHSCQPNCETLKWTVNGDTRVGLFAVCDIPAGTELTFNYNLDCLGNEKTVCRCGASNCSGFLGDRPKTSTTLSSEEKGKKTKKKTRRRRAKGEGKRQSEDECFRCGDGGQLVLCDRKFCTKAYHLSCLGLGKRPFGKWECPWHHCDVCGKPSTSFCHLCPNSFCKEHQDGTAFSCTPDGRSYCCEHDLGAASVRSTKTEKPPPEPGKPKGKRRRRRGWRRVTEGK

[3] = cytotoxicity in OVCAR8 ovarian cancer cells, dose response, PAX8 project, cell-based, plate reader, dry powder samples (AID 743197); format: functional; conditions: OVCAR-8
[4] = P. falciparum 3D7-ScDHODH growth inhibitors, dose response, SYBR Green, dry powder samples (AID 1159570); format: functional, cell-based;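 further: parasite growth measured after 72 hours of compound exposure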
Paired box protein Pax-8 = Paired box protein Pax-8 (Homo sapiens, UniProt Q06710); experiment: inhibitors of PAX8-driven TPO luciferase reporter, dose response, RMG-I cells, cherry-pick (AID 687027); format: functional, cell-based;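 further: luciferase reporter driven by Pax8 target thyroperoxidase promoter measured by SteadyGlo luminescence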
[5] = P. falciparum ATP4 D1247Y mutant growth inhibitors, dose response, NITD609-resistant line, SYBR Green, dry powder (AID 1159571); format: functional, cell-based;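 further: parasites synchronized at ring stage by sorbitol before testing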
[6] = P. falciparum Dd2 growth inhibitors, dose response, SYBR Green, dry powder samples (AID 1159566); format: functional, cell-based;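 further: potency for growth inhibition with lower SYBR green DNA signal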
[7] = NIH:OVCAR-3 ovarian cancer cell cytotoxicity, dose response, PAX8 inhibitor project, plate reader, dry powder samples (AID 743044); format: functional, cell-based
[8] = P. falciparum Dd2 growth inhibitors, dose response, SYBR Green, cherry-picked samples (AID 1159567); format: functional, cell-based
INS1 = experiment: beta cell apoptosis inhibitors, cytokine rescue, dose response, luminescence, retest (AID 449756); format: functional, cell-based; conditions: Rattus norvegicus;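 further: cell death triggered by IL-1 beta plus TNF-alpha plus IFN-gamma mixture; protective hits raise ATP signal compared with cytokine alone wells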
Streptococcus = experiment: Group A Streptococcus viability loss, dose response, counter-screen for streptokinase expression inhibitor project, luminescence, BacTiterGlo (AID 1915); format: functional, organism-based;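 further: potency for reduction of bacterial viability or growth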
[9] = system: Streptococcus sp. 'group A'; experiment: growth inhibition of control SK(-) GAS strain, dose response, counter-screen for streptokinase expression inhibitor project, luminescence, kanamycin, BacTiterGlo, confirmation (AID 1900); format: functional, organism-based
Aminopeptidase N = molecular target: T3, Aminopeptidase N (Plasmodium falciparum FcB1/Columbia, UniProt O96935); experiment: P. falciparum M1AAP inhibitors, biochemical, fluorogenic H-Leu-NHMec substrate, 1536-well (AID 1445); parameters: species or system Plasmodium falciparum 3D7, 3D7
T3 sequence (O96935 whole entry): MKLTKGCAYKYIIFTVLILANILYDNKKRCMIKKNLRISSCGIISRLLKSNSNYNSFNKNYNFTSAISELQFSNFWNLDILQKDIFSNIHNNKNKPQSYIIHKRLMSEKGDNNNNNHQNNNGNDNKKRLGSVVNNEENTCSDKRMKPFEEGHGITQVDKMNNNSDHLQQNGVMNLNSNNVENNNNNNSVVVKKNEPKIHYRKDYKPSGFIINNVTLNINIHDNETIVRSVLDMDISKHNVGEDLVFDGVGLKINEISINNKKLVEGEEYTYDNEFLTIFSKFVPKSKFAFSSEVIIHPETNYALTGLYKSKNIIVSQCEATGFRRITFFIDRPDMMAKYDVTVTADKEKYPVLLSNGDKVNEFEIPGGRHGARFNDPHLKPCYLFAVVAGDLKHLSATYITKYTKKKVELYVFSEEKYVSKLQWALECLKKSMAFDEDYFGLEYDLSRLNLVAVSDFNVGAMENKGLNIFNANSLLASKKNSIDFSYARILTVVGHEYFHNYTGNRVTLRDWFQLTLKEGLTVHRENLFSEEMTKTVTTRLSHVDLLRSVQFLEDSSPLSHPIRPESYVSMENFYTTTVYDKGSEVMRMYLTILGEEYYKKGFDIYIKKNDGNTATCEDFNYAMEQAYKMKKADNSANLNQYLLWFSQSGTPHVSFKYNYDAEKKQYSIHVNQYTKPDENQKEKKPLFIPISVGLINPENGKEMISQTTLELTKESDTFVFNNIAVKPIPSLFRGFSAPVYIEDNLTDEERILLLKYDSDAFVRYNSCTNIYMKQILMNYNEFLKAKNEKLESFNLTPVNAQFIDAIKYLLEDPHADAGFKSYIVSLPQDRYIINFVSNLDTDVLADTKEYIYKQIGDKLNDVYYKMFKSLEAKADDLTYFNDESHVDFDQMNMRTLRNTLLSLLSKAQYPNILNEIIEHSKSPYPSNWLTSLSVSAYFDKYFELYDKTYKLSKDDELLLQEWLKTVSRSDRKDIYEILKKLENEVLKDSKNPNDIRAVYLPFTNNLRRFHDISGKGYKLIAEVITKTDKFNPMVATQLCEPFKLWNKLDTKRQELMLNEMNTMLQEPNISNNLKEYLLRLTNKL

Leucine aminopeptidase = molecular target: T4, Leucine aminopeptidase (Plasmodium falciparum 3D7, UniProt Q8IL11); experiment: P. falciparum M17LAP inhibitors, primary screen, biochemical, fluorogenic H-Leu-NHMec substrate, 1536-well (AID 1619); format: functional
T4 sequence (Q8IL11 whole entry): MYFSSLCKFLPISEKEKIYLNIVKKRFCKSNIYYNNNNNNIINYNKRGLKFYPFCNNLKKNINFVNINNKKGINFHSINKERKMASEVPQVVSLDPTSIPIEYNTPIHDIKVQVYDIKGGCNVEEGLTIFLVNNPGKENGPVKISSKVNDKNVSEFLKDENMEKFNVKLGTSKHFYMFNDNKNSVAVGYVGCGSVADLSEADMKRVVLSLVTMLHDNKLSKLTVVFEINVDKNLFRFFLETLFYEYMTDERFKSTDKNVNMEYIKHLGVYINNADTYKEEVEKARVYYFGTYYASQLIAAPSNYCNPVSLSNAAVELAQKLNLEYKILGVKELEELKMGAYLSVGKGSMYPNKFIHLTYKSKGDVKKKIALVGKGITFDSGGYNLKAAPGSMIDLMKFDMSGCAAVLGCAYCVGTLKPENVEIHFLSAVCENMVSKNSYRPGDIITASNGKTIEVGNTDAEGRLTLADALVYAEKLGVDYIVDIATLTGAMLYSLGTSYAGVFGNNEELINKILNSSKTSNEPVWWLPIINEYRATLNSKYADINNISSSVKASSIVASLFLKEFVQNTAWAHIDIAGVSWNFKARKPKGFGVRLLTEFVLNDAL

Coagulation factor XII = molecular target: T5, Coagulation factor XII (Homo sapiens, UniProt P00748); format: functional;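 further: activated factor XIIa alpha cleaving a fluorogenic AMC peptide substrate; inhibitor potency from loss of enzyme activity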
T5 sequence (P00748 whole entry): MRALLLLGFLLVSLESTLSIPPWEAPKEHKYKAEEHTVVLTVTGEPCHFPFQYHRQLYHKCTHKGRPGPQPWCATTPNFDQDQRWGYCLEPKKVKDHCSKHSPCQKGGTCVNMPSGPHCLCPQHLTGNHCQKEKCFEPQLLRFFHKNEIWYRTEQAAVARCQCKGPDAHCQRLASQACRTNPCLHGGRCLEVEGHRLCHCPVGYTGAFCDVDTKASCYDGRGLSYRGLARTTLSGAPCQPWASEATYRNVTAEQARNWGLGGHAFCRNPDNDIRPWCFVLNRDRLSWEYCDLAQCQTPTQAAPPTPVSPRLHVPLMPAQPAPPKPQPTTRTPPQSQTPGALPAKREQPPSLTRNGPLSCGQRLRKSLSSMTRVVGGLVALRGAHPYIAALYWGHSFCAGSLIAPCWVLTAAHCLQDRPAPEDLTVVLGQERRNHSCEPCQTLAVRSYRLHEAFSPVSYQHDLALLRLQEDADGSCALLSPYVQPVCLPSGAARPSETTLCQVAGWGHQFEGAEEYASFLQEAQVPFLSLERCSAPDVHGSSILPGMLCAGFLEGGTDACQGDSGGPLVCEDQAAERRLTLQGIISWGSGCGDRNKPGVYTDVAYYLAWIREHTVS

Chain of Paired box protein Pax-8 (Q06710 whole entry): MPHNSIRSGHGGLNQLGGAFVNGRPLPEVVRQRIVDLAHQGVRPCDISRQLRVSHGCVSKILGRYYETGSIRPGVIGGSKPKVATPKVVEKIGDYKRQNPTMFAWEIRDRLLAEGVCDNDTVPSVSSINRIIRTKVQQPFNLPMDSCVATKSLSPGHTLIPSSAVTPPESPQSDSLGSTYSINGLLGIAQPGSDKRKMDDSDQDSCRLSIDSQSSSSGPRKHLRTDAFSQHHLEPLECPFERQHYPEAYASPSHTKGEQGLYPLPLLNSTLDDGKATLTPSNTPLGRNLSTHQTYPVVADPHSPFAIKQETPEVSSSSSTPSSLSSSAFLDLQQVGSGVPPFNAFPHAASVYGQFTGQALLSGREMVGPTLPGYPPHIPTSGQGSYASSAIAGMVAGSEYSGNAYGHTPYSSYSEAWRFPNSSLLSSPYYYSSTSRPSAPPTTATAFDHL

Cn1c(SCC(=O)NC2CCCC2)nnc1-c1ccc(S(=O)(=O)N2CCOCC2)cc1
IC50 (Prothrombin): > 50 µM (not active)

O=C(c1ccc(-c2ccccc2)cc1)N1CCN(Cc2ccccn2)CC1
IC50 [1]: > 100 µM (not active)

C=CCNCCCCOc1ccccc1
AC50 [2]: > 20 µM (inactive)

Cc1ccc(S(=O)(=O)N(C)C[C@H]2Oc3cc(C#Cc4ccncc4)ccc3S(=O)(=O)N([C@@H](C)CO)C[C@@H]2C)cc1
AC50 [3]: > 70 µM (inactive) | AC50 [4]: 1.37 µM (active) | AC50 (Paired box protein Pax-8): 2.52 µM (active) | AC50 [5]: 1.64 µM (active) | AC50 [6]: 1.41 µM (active) | AC50 [7]: 49.1 µM (active) | AC50 [8]: 1.68 µM (active)

O=C(N/N=C/c1cccc(F)c1)c1c(O)nc2ccccc2c1O
AC50 (INS1): 3.63 µM (active) | EC50 (Streptococcus): 3.03 µM (active) | IC50 (Prothrombin): > 50 µM (not active) | EC50 [9]: 2.87 µM (active)

COC(=O)c1ccccc1NC(=O)Nc1cc(C)cc(C)n1
IC50 [1]: > 100 µM (not active)

COc1ccc(NC(=O)N2CCCCN3[C@@H](CO)[C@H](c4ccc(C#Cc5ccccn5)cc4)[C@@H]3C2)cc1
AC50 [4]: 0.116 µM (active) | AC50 [5]: 0.132 µM (active) | AC50 [6]: 0.155 µM (active) | AC50 [8]: < 0.3 µM (active)

Cc1ccc(C)c(N2C(=N)S/C(=C\c3ccc(-c4ccccc4C(=O)O)o3)C2=O)c1
AC50 [2]: 10.4 µM (active) | IC50 (Aminopeptidase N): 10.4 µM (active) | IC50 (Leucine aminopeptidase): 32.6 µM (active)

N#Cc1sc2nc(-c3ccccc3)cc(C(F)(F)F)c2c1N
IC50 (Prothrombin): > 50 µM (not active)

CCN(CC)CCCNc1ncnc2scc(-c3ccc(F)cc3)c12
AC50 [2]: > 20 µM (inactive)

Cc1noc(C)c1S(=O)(=O)Nc1ccc2c(c1)C(=O)N([C@@H](C)CO)C[C@H](C)[C@@H](CN(C)C(=O)Nc1ccc(C(F)(F)F)cc1)OCCCC[C@H](C)O2
AC50 [3]: > 70 µM (inactive) | AC50 (Paired box protein Pax-8): 4.92 µM (active) | AC50 [7]: 30.9 µM (active)

O=C(N/N=C/c1ccc(OCc2cnc(Cl)s2)cc1)c1ccncc1
IC50 (Prothrombin): > 50 µM (not active) | IC50 (Coagulation factor XII): > 50 µM (inactive)
